Laboratory results reported in patent US6121323A, “Bishydroxyureas” (3M Innovative Properties Company, priority 1997, dated 2000).

Legend:
[1] = test system: Leukotriene C4 production in mouse peritoneal macrophages; experiment: In vitro mouse peritoneal macrophage Leukotriene C4 inhibition; type: cell-based; details: zymosan stimulated, read-out: Percent Inhibition
Protocol: IN VITRO MOUSE PERITONEAL MACROPHAGE LEUKOTRIENE C4 INHIBITION
The test described below measures the ability of compounds to inhibit the production of Leukotriene C4 in mouse peritoneal macrophages.
Mice (female, CD-1, weighing 25 g) are euthanized by exposure to carbon dioxide. The pertoneal cavity is exposed by peeling back the abdominal skin. A 5 mL portion of media (M199 containing 1% fetal bovine serum, 100 units/mL of penicillin, 100 μg/mL streptomycin, 20 units/mL of heparin and no glutamine) is injected into the exposed peritoneal cavity of each mouse. The lavage fluid is removed and pooled to yield proximately 1×10^6 macrophages/mL. A 2 mL portion of lavage fluid is added to each well of a 24 well sterile multidish and the marcophages are allowed to adhere to the plate for 2 hours at 37° C. in a 5% carbon dioxide atmosphere. The media is removed and each well is washed with 2 mL of phosphate buffered saline (PBS). A 1 mL portion of media, without heparin, but containing 5 μCi/mL of 3H-myoinositol is added to each well and the plates are incubated overnight at 37° C. in a 5% carbon dioxide atmosphere. The media is removed and the cells are washed twice with 2 mL portions of PBS. A 1 mL portion of Puck's saline formulation A containing 1 mM calcium chloride, 1 mM magnesium chloride and 10 mM lithium chloride is added to each well. (The Puck's formulation is made first as a 10× solution which contains 4 g of potassium chloride, 80 g of sodium chloride and 10 g of glucose per liter. The Puck's saline formulation A is made using 10 mL of the 10× Puck's formulation, 0.47 mL of 7.5% sodium bicarbonate and 2 mL of 1M N-2-hydroxyethylpiperazine-N'-2-ethanesulfonic acid per 100 mL.)
Compounds are dissolved in dimethyl sulfoxide. Compounds are tested at concentrations of 10, 1 and 0.1 μM. Each concentration is tested in duplicate.
A 1 μL portion of compound solution or vehicle (DMSO) is added to each well and the plates are incubated for 15 minutes at 37° C. in a 5% carbon dioxide atmosphere. Zymosan is then added to provide a final concentration of 50 μg/mL in each well and the plate is incubated for 1 to 2 hours at 37° C. in a 5% carbon dioxide atmosphere.
Following incubation 200 μL portions of media are transferred to 12×75 mm tubes. The tubes are either assayed immediately or stored at -20° C. until they can be assayed.
The media is assayed for the presence of Leukotriene C4 by radioimmunoassay which is performed according to the manufacturer's instructions (Advanced Magnetics; Cambridge, Mass.). Inhibition of LTC4 production is calculated as the ratio of the amount of LTC4 formed in the presence (LTC4 +cpd) and absence (LTC4 no cpd)of compound according to the equation below. [formula] IC50 values (concentration of compound producing a 50% inhibition of LTC4 production) are calculated by linear regression analysis of percentage inhibition versus log compound concentration plots.

[2] = test system: Leukotriene B4 production in rat blood; experiment: Rat ex vivo Leukotriene B4 inhibition; type: in vivo; details: 50 mg/Kg oral, 2 hours post dose, ex vivo A23187 challenge
Protocol: RAT EX VIVO LEUKOTRIENE B4 INHIBITION
The test method described below measures the ability of a compound when administrated orally to rats to inhibit the production of Leukotriene B4 in their blood which is drawn and challenged.
Rats (CD, male, non-fasted, 250 g) are lightly anesthetized with carbon dioxide and an approximately 0.75 mL sample of whole blood is obtained via cardiac puncture. The sample is dispensed into 12×75 mm polypropylene tubes containing 8-10 μL of 10,000 units/mL heparin, mixed and then maintained on ice. The rats are allowed to recover approximately one hour then dosed orally with compound dissolved in PEG 400 at a 5 mL/Kg volume. Five (5) rats are utilized per group. Two (2) hours post dose the rats are again anesthetized with carbon dioxide and the blood sampled again via cardiac puncture.
Duplicate 200 μL portions of blood are added to 1.0 mL polypropylene tubes. A 10 μL portion of 1 mM A23 187 Calcium Ionophore in dimethyl sulfoxide/Tris buffer is added to each tube. The tubes are gently vortexed then incubated in a 37° C. water bath for 30 minutes. The tubes are then centrifuged at 4000 rpm for 10 minutes. 50 μL portions of plasma are transferred to 1.0 mL tubes containing 200 μL of methanol. The tubes are vortexed then placed in the freezer overnight.
The tubes are removed from the freezer then centrifuged at 4000 rpm for 10 minutes. 20 μL portions of the methanol/plasma supernatant and 10 μl methanol dilutions of LTB4 standard are transferred to 96 well v-bottom microtiter plates. The plates are vacuum dried at 40° C. A 40 μL portion of LTB4 radioimmunoassay buffer is added to each well. The plate is bath sonicated for 5 minutes then assayed according to the manufacturer's instructions (Advanced Magnetics; Cambridge, Mass.). Percent inhibition values are obtained by comparing the level of LTB4 in the post-dose samples to the level in the pre-dose samples according to the equation below. [formula]

| Structure (SMILES) | inhibition at 0.1 µM [1] | inhibition at 1 µM [1] | inhibition at 10 µM [1] | inhibition in vivo at 50 mg/kg [2] |
| --- | --- | --- | --- | --- |
| CN(O)C(=O)Nc1cccc2c(NC(=O)N(C)O)cccc12 [Example 8, 1,1'-(1,5-Naphthalene)bis(3-hydroxy-3-methylurea)] | 55% | 76% | 91% |  |
| CN(O)C(=O)Nc1cccc(NC(=O)N(C)O)c1 [Example 7, 1,1'-(m-Phenylene)bis(3-hydroxy-3-methylurea)] | -19% | 7% | 98% | 59% |
| CCc1cc(Cc2cc(CC)c(NC(=O)N(C)O)c(CC)c2)cc(CC)c1NC(=O)N(C)O [Example 4, 4,4'-Methylenebis(1-hydroxy-1-methyl-3-(2,6-diethylphenyl)urea)] | -24% | 6% | 67% |  |
| CN(O)C(=O)Nc1ccc(C(c2ccc(NC(=O)N(C)O)cc2)(C(F)(F)F)C(F)(F)F)cc1 [Example 5, 4,4'-(2,2-Hexafluoropropane)bis(1-hydroxy-1-methyl-3-phenylurea)] | 91% | 100% | 100% |  |
| CN(O)C(=O)N[C@H]1CC[C@H](NC(=O)N(C)O)CC1 [Example 9, trans-1,4-Cyclohexanebis(3-hydroxy-3-methylurea)] | 1% | 1% | -6% | 4% |
| O=C(NCCCCCCNC(=O)N(O)Cc1ccccc1)N(O)Cc1ccccc1 [Example 10, 1,1'-Hexamethylenebis(3-hydroxy-3-benzylurea)] | 7% | 94% | 94% | 8% |
| COc1cc(-c2ccc(NC(=O)N(C)O)c(OC)c2)ccc1NC(=O)N(C)O [Example 11] | 42% | 100% | 99% | 4% |
| CN(O)C(=O)Nc1ccc(Oc2ccc(NC(=O)N(C)O)cc2)cc1 [Example 6, 4,4'-Oxybis(1-hydroxy-1-methyl-3-phenylurea)] | 48% | 99% | 99% |  |
